The target of one assay is T1, TYK2 JH2 (Homo sapiens, UniProt P29597).
T1 construct: purchased DiscoverX (KINOMEscan KdELECT service); host or cells: E. coli BL21-derived (T7 phage display) or HEK-293
The assay can be described thus: TYK2 JH2 binding assay (KINOMEscan KdELECT competitive binding). Particulars: TYK2 JH2 domain, KINOMEscan KdELECT (Assay A); read-out: Biochemical TYK2_DiscoverX_JH2_BND_Kd. The essentials:
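Test compounds were titrated in 11 three-fold steps against JH2 fragment captured on ligand-loaded magnetic beads, with 1 h incubation at room temperature and DMSO at 0.9%. Eluted kinase was quantified by qPCR, and Kd was fitted from the dose series.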

The test system of assay [1] is JAK1/TYK2 pSTAT5 (Tyr694/699) in THP-1 cell line. The assay can be described thus: IFNa-stimulated JAK1/TYK2 pSTAT5 (Tyr694/699) inhibition cellular assay, AlphaLISA. The class given is cell-based. Particulars: Homo sapiens; THP-1 cells, IFNa-stimulated, AlphaLISA (Assay B); read-out: Cellular_THP1_IFNa-pSTATS_TYK2. The essentials:
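THP-1 cells (2e4/well in HBSS) were preincubated with compound (8 points, 6-fold steps from 10000 nM final) for 1 h at 37 °C, then stimulated with IFNa (added at 100 ng/mL) for 30 min. Lysate pSTAT5 was read by AlphaLISA at 615 nm. IC50 came from a 4-parameter fit with bottom 0 and Hill −1.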

Structures can show the parent of a compound that is named as a salt.

T1 sequence (P29597 589-875 limits assumed): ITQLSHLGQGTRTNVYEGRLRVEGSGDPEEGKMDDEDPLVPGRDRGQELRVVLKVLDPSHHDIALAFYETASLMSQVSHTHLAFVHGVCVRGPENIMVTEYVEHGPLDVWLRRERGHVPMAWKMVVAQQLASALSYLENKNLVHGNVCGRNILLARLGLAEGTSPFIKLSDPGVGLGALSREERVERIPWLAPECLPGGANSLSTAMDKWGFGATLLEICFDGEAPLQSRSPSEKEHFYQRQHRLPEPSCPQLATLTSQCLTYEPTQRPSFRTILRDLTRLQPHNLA

On to `CNc1ncc(-c2nc(-c3ncnn3C)co2)c2cc(NC(=O)C3CC3)ncc12` [Example 831, N-(5-(4-(1-methyl-1H-1,2,4-triazol-5-yl)oxazol-2-yl)-8-(methylamino)-2,7-naphthyridin-3-yl)cyclopropanecarboxamide], for which, on TYK2 JH2, the Kd is ≤ 100 nM. For the same compound, the IC50 in assay [1] is > 500 nM.
As for `CNc1ncc(C2=CCCC(c3nc[nH]n3)C2)c2cc(NC(=O)C3CC3)ncc12` (centres unmarked) [Example 832, N-(5-(5-(1H-1,2,4-triazol-3-yl)cyclohex-1-en-1-yl)-8-(methylamino)-2,7-naphthyridin-3-yl)cyclopropanecarboxamide], the Kd at TYK2 JH2 is ≤ 100 nM. Further, the IC50 in assay [1] was > 500 nM.
As for `CNc1ncc(C2=CCC(c3nc[nH]n3)C2)c2cc(NC(=O)C3CC3)ncc12` (centres unmarked) [Example 833, N-(5-(4-(1H-1,2,4-triazol-3-yl)cyclopent-1-en-1-yl)-8-(methylamino)-2,7-naphthyridin-3-yl)cyclopropanecarboxamide], at TYK2 JH2, the Kd is ≤ 100 nM. Also, the IC50 in assay [1] is > 500 nM.
As to `CNc1ncc(C2=CCC(c3ncn(C)n3)C2)c2cc(NC(=O)C3CC3)ncc12` (centres unmarked) [Example 834, N-(5-(4-(1-methyl-1H-1,2,4-triazol-3-yl)cyclopent-1-en-1-yl)-8-(methylamino)-2,7-naphthyridin-3-yl)cyclopropanecarboxamide], at TYK2 JH2, the Kd is ≤ 100 nM. Moreover, the IC50 in assay [1] was > 500 nM.
Regarding `CNc1ncc(C2=CCC(c3ncnn3C)C2)c2cc(NC(=O)C3CC3)ncc12` (centres unmarked) [Example 835, N-(5-(4-(1-methyl-1H-1,2,4-triazol-5-yl)cyclopent-1-en-1-yl)-8-(methylamino)-2,7-naphthyridin-3-yl)cyclopropanecarboxamide], on TYK2 JH2, the Kd was ≤ 100 nM. For the same compound, the IC50 in assay [1] is > 500 nM.
As for `CNc1ncc(-c2ccn(CCc3ncn(C)n3)n2)c2cc(NC(=O)C3CC3)ncc12` [Example 835A, N-(5-(1-(2-(1-methyl-1H-1,2,4-triazol-3-yl)ethyl)-1H-pyrazol-3-yl)-8-(methylamino)-2,7-naphthyridin-3-yl)cyclopropanecarboxamide], the Kd at TYK2 JH2 is ≤ 100 nM. The IC50 in assay [1] was > 500 nM.
`CNc1ncc(-c2ccn(CCc3ncnn3C)n2)c2cc(NC(=O)C3CC3)ncc12` [Example 836, N-(5-(1-(2-(1-methyl-1H-1,2,4-triazol-5-yl)ethyl)-1H-pyrazol-3-yl)-8-(methylamino)-2,7-naphthyridin-3-yl)cyclopropanecarboxamide]: the Kd on TYK2 JH2 is ≤ 100 nM. Further, the IC50 in assay [1] was > 500 nM.
The matching figures for `CNc1ncc(CCc2ccc(S(C)(=O)=O)cc2)c2cc(NC(=O)C3CC3)ncc12` [Example 839, N-(8-(methylamino)-5-(4-(methylsulfonyl)phenethyl)-2,7-naphthyridin-3-yl)cyclopropanecarboxamide]: ≤ 100 nM and ≤ 500 nM.
On to `CNc1ncc(-c2cn3cccnc3n2)c2cc(NC(=O)C3CC3)ncc12` [Example 841, N-(5-(imidazo[1,2-a]pyrimidin-2-yl)-8-(methylamino)-2,7-naphthyridin-3-yl)cyclopropanecarboxamide], for which the Kd on TYK2 JH2 was ≤ 100 nM. Moreover, the IC50 in assay [1] was > 500 nM.
In the same order, the values of `CNc1ncc(-c2nc3n(n2)CCCC3)c2cc(NC(=O)C3CC3)ncc12` [Example 842, N-(8-(methylamino)-5-(5,6,7,8-tetrahydro-[1,2,4]triazolo[1,5-a]pyridin-2-yl)-2,7-naphthyridin-3-yl)cyclopropanecarboxamide] are ≤ 100 nM and > 500 nM.
As to `CNc1ncc(-c2nc3c(o2)CCCC3)c2cc(NC(=O)C3CC3)ncc12` [Example 843, N-(8-(methylamino)-5-(4,5,6,7-tetrahydrobenzo[d]oxazol-2-yl)-2,7-naphthyridin-3-yl)cyclopropanecarboxamide], on TYK2 JH2, the Kd was ≤ 100 nM. Moreover, the IC50 in assay [1] is ≤ 500 nM.
The matching figures for `CNc1ncc(C23CC(C2)C3)c2cc(NC(=O)C3CC3)ncc12` [Example 844, N-(5-(bicyclo[1.1.1]pentan-1-yl)-8-(methylamino)-2,7-naphthyridin-3-yl)cyclopropanecarboxamide]: ≤ 100 nM and > 500 nM.
In the case of `CNc1ncc(C23CC(c4ccncc4)(C2)C3)c2cc(NC(=O)C3CC3)ncc12` [Example 845, N-(8-(methylamino)-5-(3-(pyridin-4-yl)bicyclo[1.1.1]pentan-1-yl)-2,7-naphthyridin-3-yl)cyclopropanecarboxamide], the Kd on TYK2 JH2 was ≤ 100 nM. In addition, the IC50 in assay [1] is > 500 nM.
For `CCNc1ncc(-c2ccccc2)c2cc(NC(=O)C3CC3)ncc12` [Example 846, N-(8-(ethylamino)-5-phenyl-2,7-naphthyridin-3-yl)cyclopropanecarboxamide], the Kd at TYK2 JH2 was ≤ 100 nM. Further, the IC50 in assay [1] is > 500 nM.
The matching figures for `CNc1ncc(-c2ccc(-c3c(C)cnn3C)cc2)c2cc(NC(=O)C3CC3)ncc12` [Example 847, N-(5-(4-(1,4-dimethyl-1H-pyrazol-5-yl)phenyl)-8-(methylamino)-2,7-naphthyridin-3-yl)cyclopropanecarboxamide]: ≤ 100 nM and ≤ 500 nM.
In the case of `CNc1ncc(CCc2ccc(OC(F)(F)F)cc2)c2cc(NC(=O)C3CC3)ncc12` [Example 848, N-(8-(methylamino)-5-(4-(trifluoromethoxy)phenethyl)-2,7-naphthyridin-3-yl)cyclopropanecarboxamide], the Kd at TYK2 JH2 is ≤ 100 nM. For the same compound, in assay [1], the IC50 is > 500 nM.
Regarding `CNc1ncc(C2=CCc3ccccc3O2)c2cc(NC(=O)C3CC3)ncc12` [Example 849, N-(5-(4H-chromen-2-yl)-8-(methylamino)-2,7-naphthyridin-3-yl)cyclopropanecarboxamide], the Kd on TYK2 JH2 was ≤ 100 nM. Further, the IC50 in assay [1] was > 500 nM.
On to `CNc1ncc(C2=Cc3ccccc3CO2)c2cc(NC(=O)C3CC3)ncc12` [Example 850, N-(5-(1H-isochromen-3-yl)-8-(methylamino)-2,7-naphthyridin-3-yl)cyclopropanecarboxamide], for which, at TYK2 JH2, the Kd is ≤ 100 nM. In addition, the IC50 in assay [1] was ≤ 500 nM.
On to `CNc1ncc(-c2ccc(-c3cnn(C)n3)cc2)c2cc(NC(=O)C3CC3)ncc12` [Example 851, N-(5-(4-(2-methyl-2H-1,2,3-triazol-4-yl)phenyl)-8-(methylamino)-2,7-naphthyridin-3-yl)cyclopropanecarboxamide], for which the Kd at TYK2 JH2 is ≤ 100 nM. Further, the IC50 in assay [1] was ≤ 500 nM.
In the same order, the values of `CNc1ncc(-c2ccn(CCOC)n2)c2cc(NC(=O)C3CC3)ncc12` [Example 852, N-(5-(1-(2-methoxyethyl)-1H-pyrazol-3-yl)-8-(methylamino)-2,7-naphthyridin-3-yl)cyclopropanecarboxamide] are ≤ 100 nM and > 500 nM.
As for `CNc1ncc(-c2nc3n(n2)CCC3)c2cc(NC(=O)C3CC3)ncc12` [Example 853, N-(5-(6,7-dihydro-5H-pyrrolo[1,2-b][1,2,4]triazol-2-yl)-8-(methylamino)-2,7-naphthyridin-3-yl)cyclopropanecarboxamide formate], at TYK2 JH2, the Kd is ≤ 100 nM. Further, the IC50 in assay [1] is > 500 nM.
With `CNc1ncc(-c2nc3c(o2)CCC(C(F)(F)F)C3)c2cc(NC(=O)C3CC3)ncc12` (centres unmarked) [Example 855, N-(8-(methylamino)-5-(5-(trifluoromethyl)-4,5,6,7-tetrahydrobenzo[d]oxazol-2-yl)-2,7-naphthyridin-3-yl)cyclopropanecarboxamide], the Kd at TYK2 JH2 is ≤ 100 nM. Besides, the IC50 in assay [1] is > 500 nM.
As for `CNc1ncc(-c2ccc(Oc3cncs3)cc2)c2cc(NC(=O)C3CC3)ncc12` [Example 857, N-(8-(methylamino)-5-(4-(thiazol-5-yloxy)phenyl)-2,7-naphthyridin-3-yl)cyclopropanecarboxamide], the Kd at TYK2 JH2 is ≤ 100 nM. Also, in assay [1], the IC50 is ≤ 500 nM.
Regarding `CNc1ncc(-c2ccc(Oc3ccncc3)cc2)c2cc(NC(=O)C3CC3)ncc12` [Example 858, N-(8-(methylamino)-5-(4-(pyridin-4-yloxy)phenyl)-2,7-naphthyridin-3-yl)cyclopropanecarboxamide], at TYK2 JH2, the Kd was ≤ 100 nM. For the same compound, in assay [1], the IC50 was ≤ 500 nM.
On to `CNc1ncc(-c2ccc(OCCOC)cc2)c2cc(NC(=O)C3CC3)ncc12` [Example 859, N-(5-(4-(2-methoxyethoxy)phenyl)-8-(methylamino)-2,7-naphthyridin-3-yl)cyclopropanecarboxamide], for which, at TYK2 JH2, the Kd is ≤ 100 nM. Besides, the IC50 in assay [1] is ≤ 500 nM.
The matching figures for `CNc1ncc(-c2ccc(N3CCC3CC#N)cc2)c2cc(NC(=O)C3CC3)ncc12` (centres unmarked) [Example 860, N-(5-(4-(2-(cyanomethyl)azetidin-1-yl)phenyl)-8-(methylamino)-2,7-naphthyridin-3-yl)cyclopropanecarboxamide]: ≤ 100 nM and > 500 nM.
The matching figures for `CNc1ncc(-c2ccc(O)cc2)c2cc(NC(=O)C3CC3)ncc12` [Example 861, N-(5-(4-hydroxyphenyl)-8-(methylamino)-2,7-naphthyridin-3-yl)cyclopropanecarboxamide]: ≤ 100 nM and ≤ 500 nM.
On to `CNc1ncc(-c2ccc(Oc3ccnc(C)c3)cc2)c2cc(NC(=O)C3CC3)ncc12` [Example 862, N-(8-(methylamino)-5-(4-((2-methylpyridin-4-yl)oxy)phenyl)-2,7-naphthyridin-3-yl)cyclopropanecarboxamide], for which the Kd on TYK2 JH2 is ≤ 100 nM. The IC50 in assay [1] is ≤ 500 nM.
